Tests used:
[1] = biological target: T1, Amine oxidase [flavin-containing] B (Mus musculus, UniProt Q8BW75); test: Inhibition of MAO-B in mouse cerebral homogenate using kynuramine as substrate after 30 mins by fluorimetry in the presence of MOA-A inhibitor clorgyline relative to control; conditions: 0.5 h
T1 sequence (Q8BW75 whole entry): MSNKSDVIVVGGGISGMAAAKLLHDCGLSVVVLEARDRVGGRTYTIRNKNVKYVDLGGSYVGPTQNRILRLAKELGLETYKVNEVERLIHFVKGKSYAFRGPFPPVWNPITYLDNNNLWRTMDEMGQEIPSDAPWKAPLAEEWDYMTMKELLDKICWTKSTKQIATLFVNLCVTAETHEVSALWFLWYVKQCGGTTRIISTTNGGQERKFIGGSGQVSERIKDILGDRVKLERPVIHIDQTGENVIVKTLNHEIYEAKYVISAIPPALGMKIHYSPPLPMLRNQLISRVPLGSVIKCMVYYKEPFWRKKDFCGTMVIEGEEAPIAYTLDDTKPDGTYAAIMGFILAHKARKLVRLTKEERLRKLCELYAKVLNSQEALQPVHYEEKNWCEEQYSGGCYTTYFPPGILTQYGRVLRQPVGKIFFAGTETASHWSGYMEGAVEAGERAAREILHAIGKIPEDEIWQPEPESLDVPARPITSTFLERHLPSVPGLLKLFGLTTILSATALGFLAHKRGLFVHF

[2] = biological target: T1, Amine oxidase [flavin-containing] B; test: Inhibition of MAO-B in mouse cerebral homogenate using kynuramine as substrate after 30 mins by fluorimetry in the presence of MOA-A inhibitor clorgyline
[3] = biological target: T1, Amine oxidase [flavin-containing] B; test: Ratio of compound Ki to KW-6002 Ki for MAO-B in mouse cerebral homogenate

Row | SMILES | inhibition (INH) [1] | IC50 [2] | Ki [2] | Ratio Ki [3]
1 | COc1ccc(C(=O)Nc2ccc(-c3nc4c([nH]3)c(=O)n(C)c(=O)n4C)cc2)cc1 | 32.1% | 17.2 µM | 3.97 µM | –
2 | Cn1c(=O)c2[nH]c(-c3cccc(NC(=O)c4ccccc4)c3)nc2n(C)c1=O | 27.9% | 18.9 µM | 4.21 µM | –
3 | Cc1ccc(C(=O)Nc2cccc(-c3nc4c([nH]3)c(=O)n(C)c(=O)n4C)c2)cc1 | 41.6% | 14 µM | 2.87 µM | –
4 | COc1ccc(C(=O)Nc2cccc(-c3nc4c([nH]3)c(=O)n(C)c(=O)n4C)c2)cc1 | 35.1% | 16 µM | 3.49 µM | –
5 | Cn1c(=O)c2c(nc(-c3cccc(NC(=O)c4ccccc4)c3)n2C)n(C)c1=O | 40.5% | 14.5 µM | 2.95 µM | –
6 | Cc1ccc(C(=O)Nc2cccc(-c3nc4c(c(=O)n(C)c(=O)n4C)n3C)c2)cc1 | 34.4% | 16.7 µM | 3.56 µM | –
7 | COc1ccc(C(=O)Nc2cccc(-c3nc4c(c(=O)n(C)c(=O)n4C)n3C)c2)cc1 | 30.8% | 17.8 µM | 3.92 µM | –

The remaining compounds from weak to strong by IC50 [2], led by results:

Row | inhibition (INH) [1] | IC50 [2] | Ki [2] | Ratio Ki [3] | SMILES
8 | 42.3% | 13.9 µM | 2.77 µM | – | Cc1ccc(C(=O)Nc2ccc(-c3nc4c([nH]3)c(=O)n(C)c(=O)n4C)cc2)cc1
9 | 53.7% | 11.3 µM | 1.63 µM | – | Cc1ccc(C(=O)Nc2ccc(-c3nc4c(c(=O)n(C)c(=O)n4C)n3C)cc2)cc1
10 | 58.2% | 10.7 µM | 1.18 µM | – | COc1ccc(C(=O)Nc2ccc(-c3nc4c(c(=O)n(C)c(=O)n4C)n3C)cc2)cc1
11 | 67.4% | 8.9 µM | 0.26 µM | 42 | Cn1c(=O)c2c(nc(-c3ccc(NC(=O)c4ccccc4)cc3)n2C)n(C)c1=O

Source: ChEMBL document CHEMBL1949551, “Design and synthesis of 8-substituted benzamido-phenylxanthine derivatives as MAO-B inhibitors” (Bioorg Med Chem Lett, 2012)
